Common to all, as to assay: relative viability (nuclei count vs DMSO), 5 days (fraction); higher = more cells survive
Compound in the assay “Ruxolitinib + Olaparib”: N#CC[C@H](C1CCCC1)n1cc(-c2ncnc3[nH]ccc23)cn1 [Ruxolitinib] + O=C(c1cc(Cc2n[nH]c(=O)c3ccccc23)ccc1F)N1CCN(C(=O)C2CC2)CC1 [Olaparib] (partner 8 µM)
The procedure, abridged: (§1)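 A single step with final 0.05% Triton X-100, 1% formaldehyde and 1 ug/ml Hoechst fixed the cells and stained nuclei 5 days after treatment. Lung cancer cell lines in 1536-well plates had been treated by pin tool the day after seeding with one drug alone or a fixed anchor-drug dose plus five library-drug doses (not always all listed) in √10 steps, and nuclei were counted on 4× images. Relative viability is the ratio of nuclei in treated wells to nuclei in vehicle wells, taken as the median of duplicate plates.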

Compound in the assay “Ruxolitinib + Navitoclax”: N#CC[C@H](C1CCCC1)n1cc(-c2ncnc3[nH]ccc23)cn1 [Ruxolitinib] + CC1(C)CCC(c2ccc(Cl)cc2)=C(CN2CCN(c3ccc(C(=O)NS(=O)(=O)c4ccc(N[C@H](CCN5CCOCC5)CSc5ccccc5)c(S(=O)(=O)C(F)(F)F)c4)cc3)CC2)C1 [Navitoclax] (partner 0.5 µM)
The gist of the method: as §1

Compound in the assay “VE-821 + OSI-027”: CS(=O)(=O)c1ccc(-c2cnc(N)c(C(=O)Nc3ccccc3)n2)cc1 [VE-821] + COc1cccc2cc(-c3nc([C@H]4CC[C@H](C(=O)O)CC4)n4ncnc(N)c34)[nH]c12 [OSI-027] (partner 0.5 µM)
The procedure, abridged:
as §1

Compound in the assay “Vismodegib + Trametinib”: CS(=O)(=O)c1ccc(C(=O)Nc2ccc(Cl)c(-c3ccccn3)c2)c(Cl)c1 [Vismodegib] + CC(=O)Nc1cccc(-n2c(=O)n(C3CC3)c(=O)c3c(Nc4ccc(I)cc4F)n(C)c(=O)c(C)c32)c1 [Trametinib] (partner 0.02 µM)
The procedure, abridged: as §1

For UMC-11, the relative viability was determined as 0.37 in the assay with Ruxolitinib + Olaparib (first compound 0.08 µM); 0.894 in the assay with Ruxolitinib + Olaparib (first compound 0.253 µM); 1.03 with Ruxolitinib + Olaparib (first compound 0.8 µM); 0.366 with Ruxolitinib + Olaparib (first compound 2.53 µM); 0.315 with Ruxolitinib + Olaparib (first compound 8 µM); 0.3 with Ruxolitinib + Navitoclax (first compound 0.08 µM). The relative viability with Ruxolitinib + Navitoclax (first compound 0.253 µM) was 0.302; with Ruxolitinib + Navitoclax (first compound 0.8 µM), 0.388; in the assay with Ruxolitinib + Navitoclax (first compound 2.53 µM) it was 0.352; with Ruxolitinib + Navitoclax (first compound 8 µM), 0.288; with VE-821 + OSI-027 (first compound 0.08 µM), 0.507; with VE-821 + OSI-027 (first compound 0.253 µM), 0.436. In addition, the relative viability came to 0.508 with VE-821 + OSI-027 (first compound 0.8 µM); 0.477 with VE-821 + OSI-027 (first compound 2.53 µM); 0.325 with VE-821 + OSI-027 (first compound 8 µM); 0.422 in the assay with Vismodegib + Trametinib (first compound 0.08 µM); 0.669 in the assay with Vismodegib + Trametinib (first compound 0.253 µM); 0.609 in the assay with Vismodegib + Trametinib (first compound 0.8 µM). For the same cell line, the relative viability was determined as 0.618 with Vismodegib + Trametinib (first compound 2.53 µM) and 0.375 with Vismodegib + Trametinib (first compound 8 µM).
